Entries after “also recorded” stand apart in the source; their conditions may differ.
Columns and labels:
BBB = test: MRI assessment of BBB integrity with contrasting agent Gd-DTPA (742 Da); format: in vivo, C57/Bl6 mice
Protocol: Following injection of siRNA and using appropriate controls, BBB integrity was assessed in vivo via MRI, using a dedicated small rodent Bruker BioSpec 70/30 (i.e. 7 T, 30 cm bore) with an actively shielded USR Magnet. Mice were anaesthetised with isofluorane, and physiologically monitored (ECG, respiration and temperature) and placed on an MRI-compatible support cradle, which has a built-in system for maintaining the animal's body temperature at 37° C. The cradle was then positioned within the MRI scanner. Accurate positioning is ensured by acquiring an initial rapid pilot image, which is then used to ensure the correct geometry is scanned in all subsequent MRI experiments. Upon insertion into the MRI scanner, high resolution anatomical images of the brain were acquired (100 μm in-plane and 500 μm through-plane spatial resolution). BBB integrity was then visualised in high resolution T1 weighted MR images before and after injection of a 0.1 mM/L/kg bolus of Gd-DTPA (Gadolinium diethylene-triamine pentaacetic acid), administered via the tail vein.
Gd-DTPA was injected in the tail vein to assess whether Gd-TPA would permeate across the BBB. Following injection of siRNA and using appropriate controls, BBB integrity to a molecule of 742 Daltons (Gd-DTPA) was assessed via MRI, using a dedicated small rodent Bruker BioSpec 70/30 (i.e. 7 T, 30 cm bore) with an actively shielded USR Magnet. Mice were anaesthetised with isofluorane, and physiologically monitored (ECG, respiration and temperature) and placed on an MRI-compatible support cradle, which has a built-in system for maintaining the animal's body temperature at 37° C. The cradle was then positioned within the MRI scanner. Accurate positioning is ensured by acquiring an initial rapid pilot image, which is then used to ensure the correct geometry is scanned in all subsequent MRI experiments. Upon insertion into the MRI scanner, high resolution anatomical images of the brain were acquired (100 μm in-plane and 500 μm through-plane spatial resolution). BBB integrity was then visualised in high resolution T1 weighted MR images before and after injection of a 0.1 mM/L/kg bolus of Gd-DTPA (Gadolinium diethylene-triamine pentaacetic acid), administered via the tail vein. Following injection of Gd-DTPA, repeated 3 minute T1-weighted scans were performed over a period of 30 minutes, and images shown are representative of the final scans of this 30 minute period. Statistical analysis of all densitometric results of combined regions of the Cerebellum, Hippocampus and Cortex was performed using ANOVA, with significance represented by a P value of ≦0.05, and results are presented both graphically and in a quantitative image depicting the rate of Gd-DTPA deposition within the brain. All MRI scans were performed on 2 mice from each experimental treatment.

claudin-1 = test: Claudin-1 expression following suppression of claudin-5 (Western blot, double immunostaining); format: in vivo, C57/Bl6 mice
[1] = MRI water diffusion in the brains of mice after claudin-5 siRNA; format: in vivo; conditions: 24 and 48 hours post injection
Protocol: 24 and 48 hours post-delivery of siRNA targeting claudin-5 or a non-targeting siRNA mice were anaesthetised with isofluorane, and physiologically monitored (ECG, respiration and temperature) and placed on an MRI-compatible support cradle, which has a built-in system for maintaining the animal's body temperature at 37° C. The cradle was then positioned within the MRI scanner. Accurate positioning is ensured by acquiring an initial rapid pilot image, which is then used to ensure the correct geometry is scanned in all subsequent MRI experiments. Upon insertion into the MRI scanner, high resolution anatomical images of the brain were acquired (100 μm in-plane and 500 μm through-plane spatial resolution). Water diffusion scans were subsequently undertaken. Using a standard diffusion imaging sequence such as a spin-echo EPI imaging sequence with diffusion gradients (Stejskal-Taner gradients) in order to acquire images over a large range of b-values. In this way, the effect of the technique in the vascular compartment and in the brain parenchymal tissue can be compared. All experiments were carried out on a 7 T Brüker small-bore system with 400 mT/m maximum gradient strength. Image processing and calculation of ADCs was carried out using IDL.

claudin-5 siRNA: siRNA, sense CGUUGGAAAUUCUGGGUCUUU (SEQ ID NO: 1), antisense AGACCCAGAAUUUCCAACGUU (SEQ ID NO: 2) (listed as RNA, chemistry not given here)
densitometric analysis of MRI contrasting, Cerebellum, Hippocampus and Cortex combined (BBB; 24 hours and 48 hours post injection, vs control groups): significant increase in contrasting
Gd-DTPA (742 Da) passage across BBB, MRI (BBB; 24 hours post-injection): Gd-DTPA crossed the BBB and was deposited within the brain
Gd-DTPA (742 Da) passage across BBB, MRI (BBB; 48 hours post-injection): Gd-DTPA crossed the BBB and was deposited within the brain; also recorded: Gd-DTPA crossed the BBB and was deposited in the parenchymal tissue of the brain; also recorded: widespread and intense contrasting throughout the brain; also recorded: extremely large quantities of Gd-DTPA were deposited in the brain
Gd-DTPA (742 Da) passage across BBB, MRI (BBB; 48 hours post-injection, listed as siRNA targeting claudin-5): enhanced contrasting within the brain
Gd-DTPA (742 Da) passage across BBB, MRI (BBB; 72 hours or 1 week post-injection): intact barrier with no deposition of Gd-DTPA
Gd-DTPA (742 Da) passage across BBB, MRI (BBB; 72 hours or 1 week post-injection, listed as siRNA targeting claudin-5): nor was it present; also recorded: no deposition of Gd-DTPA
claudin-1 (23 kDa) expression, Western blot (claudin-1; 24, 48, 72 hours and 1 week post delivery of claudin-5 siRNA): no changes at any time points
claudin-1 expression, double immunostaining in brain cryosections (claudin-1; each time point post-injection of claudin-5 siRNA): remain similar to those observed in the control groups
rate of water diffusion in the brain, MRI [1]: no changes in diffusion
rate of water diffusion in the brain, MRI ([1]; listed as siRNA targeting claudin-5): no change in the rate of water diffusion

— US9540649B2, “Method for opening tight junctions” (The Provost, Fellows and Scholars of the College of the …, priority 2007, dated 2017)
